In ChEMBL document CHEMBL5149992, “Discovery, Optimization, and Evaluation of Quinazolinone Derivatives with Novel Linkers as Orally Efficacious Phosphoinositide-3-Kinase Delta Inhibitors for Treatment of Inflammatory Diseases” (J Med Chem, 2021):
Each block holds one molecule with its values, some of them ahead of it. Activity calls are given as the source filed them. The rule behind the calls is not given here.

Legend:
[1] = molecular target: T1, Phosphatidylinositol 4,5-bisphosphate 3-kinase catalytic subunit gamma isoform (Homo sapiens, UniProt P48736); test: Inhibition of PI3Kgamma (unknown origin) at 0.1 uM relative to control
Target sequence in this assay (P48736 whole entry, looked up, canonical isoform): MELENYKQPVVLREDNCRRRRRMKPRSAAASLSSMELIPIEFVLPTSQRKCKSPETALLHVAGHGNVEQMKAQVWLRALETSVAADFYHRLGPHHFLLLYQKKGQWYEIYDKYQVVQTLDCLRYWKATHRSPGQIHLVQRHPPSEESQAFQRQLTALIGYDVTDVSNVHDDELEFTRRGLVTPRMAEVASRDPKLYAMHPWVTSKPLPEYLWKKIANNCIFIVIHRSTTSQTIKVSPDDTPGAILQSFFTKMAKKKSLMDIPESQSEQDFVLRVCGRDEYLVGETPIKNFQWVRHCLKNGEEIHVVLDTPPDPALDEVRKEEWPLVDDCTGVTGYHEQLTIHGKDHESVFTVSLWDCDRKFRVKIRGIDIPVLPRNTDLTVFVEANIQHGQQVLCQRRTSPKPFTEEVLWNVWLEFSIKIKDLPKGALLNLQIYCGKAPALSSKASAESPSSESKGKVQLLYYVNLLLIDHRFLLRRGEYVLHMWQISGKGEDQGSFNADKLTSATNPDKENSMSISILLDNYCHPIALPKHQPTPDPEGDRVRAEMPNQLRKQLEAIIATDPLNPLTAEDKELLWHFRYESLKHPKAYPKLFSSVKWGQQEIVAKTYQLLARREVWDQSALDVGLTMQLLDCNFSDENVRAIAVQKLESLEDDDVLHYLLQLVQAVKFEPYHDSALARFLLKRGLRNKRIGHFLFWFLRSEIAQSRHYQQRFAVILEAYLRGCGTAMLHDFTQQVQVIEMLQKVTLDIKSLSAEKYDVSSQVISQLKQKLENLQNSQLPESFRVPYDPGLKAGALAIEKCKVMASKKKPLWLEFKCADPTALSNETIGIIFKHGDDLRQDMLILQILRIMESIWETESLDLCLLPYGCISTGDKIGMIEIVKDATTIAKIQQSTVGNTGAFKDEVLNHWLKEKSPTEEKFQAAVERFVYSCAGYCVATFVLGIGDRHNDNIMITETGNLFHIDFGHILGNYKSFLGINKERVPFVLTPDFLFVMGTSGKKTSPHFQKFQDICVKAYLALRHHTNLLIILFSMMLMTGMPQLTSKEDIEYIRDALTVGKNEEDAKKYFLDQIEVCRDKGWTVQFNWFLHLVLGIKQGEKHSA

in vitro = details: human, liver microsomes
[2] = molecular target: T2, Phosphatidylinositol 4,5-bisphosphate 3-kinase catalytic subunit beta isoform (Homo sapiens, UniProt P42338); test: Inhibition of PI3Kbeta (unknown origin) at 0.1 uM relative to control
Target sequence in this assay (P42338 whole entry, looked up, canonical isoform): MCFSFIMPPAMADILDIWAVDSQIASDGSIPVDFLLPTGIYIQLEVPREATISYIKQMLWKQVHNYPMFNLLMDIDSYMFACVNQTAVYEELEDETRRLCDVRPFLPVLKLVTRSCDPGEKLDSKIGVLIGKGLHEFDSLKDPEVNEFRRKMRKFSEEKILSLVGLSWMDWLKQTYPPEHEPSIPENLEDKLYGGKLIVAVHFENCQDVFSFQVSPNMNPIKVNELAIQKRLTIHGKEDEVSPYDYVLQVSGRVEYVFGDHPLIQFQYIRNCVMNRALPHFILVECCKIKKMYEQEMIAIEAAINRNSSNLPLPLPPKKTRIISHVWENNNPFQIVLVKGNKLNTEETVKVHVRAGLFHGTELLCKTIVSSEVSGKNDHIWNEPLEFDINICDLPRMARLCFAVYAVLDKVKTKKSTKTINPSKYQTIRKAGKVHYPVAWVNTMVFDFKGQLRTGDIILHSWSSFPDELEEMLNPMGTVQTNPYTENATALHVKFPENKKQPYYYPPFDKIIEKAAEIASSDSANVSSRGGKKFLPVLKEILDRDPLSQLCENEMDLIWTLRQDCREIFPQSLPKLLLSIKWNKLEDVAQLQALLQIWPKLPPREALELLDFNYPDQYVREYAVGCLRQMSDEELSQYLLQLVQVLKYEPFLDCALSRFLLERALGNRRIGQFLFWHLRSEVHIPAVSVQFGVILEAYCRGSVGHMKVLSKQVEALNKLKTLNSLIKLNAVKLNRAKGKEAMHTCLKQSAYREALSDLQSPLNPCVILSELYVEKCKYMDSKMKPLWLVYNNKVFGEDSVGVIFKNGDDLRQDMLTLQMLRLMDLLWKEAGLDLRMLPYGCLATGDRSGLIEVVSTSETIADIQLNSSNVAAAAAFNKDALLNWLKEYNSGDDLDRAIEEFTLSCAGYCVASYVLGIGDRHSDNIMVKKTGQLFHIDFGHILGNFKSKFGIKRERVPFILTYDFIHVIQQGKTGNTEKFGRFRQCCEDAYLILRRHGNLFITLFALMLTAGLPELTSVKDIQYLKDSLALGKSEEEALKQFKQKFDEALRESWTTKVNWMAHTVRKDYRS

[3] = molecular target: T3, Phosphatidylinositol 4,5-bisphosphate 3-kinase catalytic subunit alpha isoform (Homo sapiens, UniProt P42336); test: Inhibition of PI3Kalpha (unknown origin) at 0.1 uM relative to control
[4] = molecular target: T4, Phosphatidylinositol 4,5-bisphosphate 3-kinase catalytic subunit delta isoform (Homo sapiens, UniProt O00329); test: Inhibition of PI3Kdelta (unknown origin)
T4 sequence (O00329 whole entry): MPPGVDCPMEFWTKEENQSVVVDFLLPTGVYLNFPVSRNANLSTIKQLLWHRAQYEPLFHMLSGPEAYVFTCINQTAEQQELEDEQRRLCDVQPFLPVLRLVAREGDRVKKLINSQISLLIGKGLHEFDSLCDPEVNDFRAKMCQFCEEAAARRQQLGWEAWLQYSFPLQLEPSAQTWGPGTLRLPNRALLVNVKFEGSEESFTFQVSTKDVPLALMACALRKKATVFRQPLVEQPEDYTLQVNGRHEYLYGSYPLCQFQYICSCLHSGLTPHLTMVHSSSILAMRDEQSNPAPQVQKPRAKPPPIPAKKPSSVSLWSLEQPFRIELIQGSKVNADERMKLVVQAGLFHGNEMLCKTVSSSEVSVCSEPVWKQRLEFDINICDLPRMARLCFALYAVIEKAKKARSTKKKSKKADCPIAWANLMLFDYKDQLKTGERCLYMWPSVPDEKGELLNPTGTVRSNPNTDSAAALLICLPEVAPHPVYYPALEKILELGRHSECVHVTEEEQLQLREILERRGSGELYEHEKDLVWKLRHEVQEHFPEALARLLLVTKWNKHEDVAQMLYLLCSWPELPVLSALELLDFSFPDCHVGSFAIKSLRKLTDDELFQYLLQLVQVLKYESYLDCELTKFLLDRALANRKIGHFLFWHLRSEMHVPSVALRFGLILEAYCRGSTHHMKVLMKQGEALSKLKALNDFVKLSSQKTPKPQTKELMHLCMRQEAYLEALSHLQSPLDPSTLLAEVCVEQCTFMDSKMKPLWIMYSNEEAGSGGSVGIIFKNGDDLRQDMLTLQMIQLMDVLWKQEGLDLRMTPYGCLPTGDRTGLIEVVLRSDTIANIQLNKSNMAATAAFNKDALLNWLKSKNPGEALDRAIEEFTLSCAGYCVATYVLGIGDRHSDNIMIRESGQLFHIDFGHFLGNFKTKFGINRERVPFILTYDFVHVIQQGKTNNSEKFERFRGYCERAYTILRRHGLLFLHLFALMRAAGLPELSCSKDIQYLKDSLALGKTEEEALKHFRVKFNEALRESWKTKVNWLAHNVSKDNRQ

[5] = human, microsomes, 10 µM
[6] = Oral bioavailability Sprague-Dawley rat at 5 mg/kg incubated for 5 to 24 hrs by LC-MS/MS analysis; assay type: ADME, organism-based; details: in vivo, time 5-24 hrs
[7] = Volume of distribution at steady state in Sprague-Dawley rat at 5 mg/kg, po incubated for 5 to 24 hrs by LC-MS/MS analysis; assay type: ADME, organism-based; details: in vivo, time 5-24 hrs
[8] = Elimination half life in Sprague-Dawley rat at 5 mg/kg, iv incubated for 5 to 24 hrs by LC-MS/MS analysis; assay type: ADME, organism-based; details: in vivo, time 5-24 hrs, read-out: beta t1/2 (converted)
[9] = Elimination half life in Sprague-Dawley rat at 5 mg/kg, po incubated for 5 to 24 hrs by LC-MS/MS analysis; assay type: ADME, organism-based; details: in vivo, time 5-24 hrs, read-out: beta t1/2 (converted)
[10] = MRT in Sprague-Dawley rat at 5 mg/kg, po incubated for 5 to 24 hrs by LC-MS/MS analysis; assay type: ADME, organism-based; details: in vivo, time 5-24 hrs
Mus musculus [11] = test: Antiarthritic activity against collagen-induced arthritis DBA1/J mouse model assessed as destruction of cartilage at 20 mg/kg, po measured after 24 hrs by Safranin-O staining based microscopic analysis; assay type: functional, organism-based
H9c2 = test: Cytotoxicity against rat H9c2 cells assessed as reduction in cell viability incubated for 72 hrs by CCK-8 assay; assay type: toxicity, cell-based; details: h9c2, 72 h
Mus musculus [12] = test: Antiarthritic activity against collagen-induced arthritis DBA1/J mouse model assessed as bone erosion at 20 mg/kg, po measured after 24 hrs by H and E staining based analysis; assay type: functional, organism-based
[13] = molecular target: T3, Phosphatidylinositol 4,5-bisphosphate 3-kinase catalytic subunit alpha isoform; test: Inhibition of PI3Kalpha in human SK-OV-3 cells assessed as reduction in AKT phosphorylation at S473 residue incubated for 30 mins; assay type: cell-based
Mus musculus [14] = test: Antiarthritic activity against collagen-induced arthritis DBA1/J mouse model assessed as paw swelling of hindlimb at 5 to 20 mg/kg, po measured on day 27; assay type: functional, organism-based; details: dose 5-20 mg/kg, time 27.0 day
L02 = test: Cytotoxicity against human L02 cells assessed as reduction in cell viability incubated for 72 hrs by CCK-8 assay; assay type: toxicity, cell-based; details: l02, 72 h
HEK293 = test: Cytotoxicity against HEK293 cells assessed as reduction in cell viability incubated for 72 hrs by CCK-8 assay; assay type: toxicity, cell-based; details: human, hek293, 72 h
[15] = MRT in Sprague-Dawley rat at 5 mg/kg, iv incubated for 5 to 24 hrs by LC-MS/MS analysis; assay type: ADME, organism-based; details: in vivo, time 5-24 hrs
[16] = molecular target: T4, Phosphatidylinositol 4,5-bisphosphate 3-kinase catalytic subunit delta isoform; test: Inhibition of PI3Kdelta in anti-IgM-stimulated human Raji cells assessed as reduction in AKT phosphorylation at S473 residue incubated for 30 mins; assay type: cell-based
[17] = molecular target: Phosphatidylinositol 4,5-bisphosphate 3-kinase catalytic subunit gamma isoform (Mus musculus, UniProt Q9JHG7); test: Inhibition of PI3Kgamma in c5a-stimulated mouse RAW264.7 cells assessed as reduction in AKT phosphorylation at S473 residue incubated for 30 mins; assay type: cell-based
L929 = test: Cytotoxicity against mouse L929 cells assessed as reduction in cell viability incubated for 72 hrs by CCK-8 assay; assay type: toxicity, cell-based; details: l929, 72 h
[18] = molecular target: T4, Phosphatidylinositol 4,5-bisphosphate 3-kinase catalytic subunit delta isoform; test: Inhibition of PI3Kdelta in anti-IgM-stimulated human whole blood B cell degranulation incubated for 60 mins by flow cytometry; assay type: tissue-based
Mus musculus [19] = test: Antiarthritic activity in collagen-induced rheumatoid arthritis po dosed DBA1/J mouse model assessed as reduction in disease severity measured once daily for 24 to 27 days; assay type: functional, organism-based; details: dose 5-20 mg/kg, time 24-27 day, DDE = dose-dependent effect
[20] = AUC in Sprague-Dawley rat at 5 mg/kg, iv incubated for 5 to 24 hrs by LC-MS/MS analysis; assay type: ADME, organism-based; design: time 5-24 hrs, dose 5 mg/kg, route iv; details: in vivo
Mus musculus [21] = test: Antiarthritic activity against collagen-induced arthritis DBA1/J mouse model assessed as signs of inflammation at 20 mg/kg, po measured after 24 hrs by H and E staining based analysis; assay type: functional, organism-based
[22] = molecular target: T1, Phosphatidylinositol 4,5-bisphosphate 3-kinase catalytic subunit gamma isoform; test: Inhibition of PI3Kgamma (unknown origin)
Target sequence in this assay (P48736 whole entry, canonical isoform): as the sequence (P48736 whole entry, looked up, canonical isoform) above

[23] = molecular target: T3, Phosphatidylinositol 4,5-bisphosphate 3-kinase catalytic subunit alpha isoform; test: Inhibition of PI3Kalpha (unknown origin)
[24] = Tmax in Sprague-Dawley rat at 5 mg/kg, po incubated for 5 to 24 hrs by LC-MS/MS analysis; assay type: ADME, organism-based; details: in vivo, time 5-24 hrs
[25] = molecular target: T2, Phosphatidylinositol 4,5-bisphosphate 3-kinase catalytic subunit beta isoform; test: Inhibition of PI3Kbeta (unknown origin)
Target sequence in this assay (P42338 whole entry, canonical isoform): as the sequence (P42338 whole entry, looked up, canonical isoform) above

[26] = AUC in Sprague-Dawley rat at 5 mg/kg, po incubated for 5 to 24 hrs by LC-MS/MS analysis; assay type: ADME, organism-based; design: dose 5 mg/kg, time upper 24 hrs, time lower 5 hrs, route po; details: in vivo
Mus musculus [27] = test: Antiarthritic activity against collagen-induced arthritis DBA1/J mouse model assessed as paw swelling of forelimb at 5 to 20 mg/kg, po measured on day 27; assay type: functional, organism-based; details: dose 5-20 mg/kg, time 27.0 day
[28] = molecular target: T2, Phosphatidylinositol 4,5-bisphosphate 3-kinase catalytic subunit beta isoform; test: Inhibition of PI3Kbeta in human 786-0 cells assessed as reduction in AKT phosphorylation at S473 residue incubated for 30 mins; assay type: cell-based
Target sequence in this assay (P42338 whole entry, canonical isoform): as the sequence (P42338 whole entry, looked up, canonical isoform) above

[29] = Volume of distribution at steady state in Sprague-Dawley rat at 5 mg/kg, iv incubated for 5 to 24 hrs by LC-MS/MS analysis; assay type: ADME, organism-based; details: in vivo, time 5-24 hrs, read-out: Vdss
[30] = Tmax in Sprague-Dawley rat at 5 mg/kg, iv incubated for 5 to 24 hrs by LC-MS/MS analysis; assay type: ADME, organism-based; details: in vivo, time 5-24 hrs
[31] = molecular target: T5, Phosphatidylinositol 4,5-bisphosphate 3-kinase catalytic subunit delta isoform (Homo sapiens) (UniProt O00329); test: Inhibition of PI3Kdelta (unknown origin) at 0.1 uM using phosphatidylinositol as substrate incubated for 30 mins in presence of ATP by HTRF based assay relative to control
T5 sequence (whole entry): T4 sequence (O00329 whole entry)

[32] = molecular target: T5, Phosphatidylinositol 4,5-bisphosphate 3-kinase catalytic subunit delta isoform (Homo sapiens); test: Inhibition of PI3Kdelta (unknown origin) at 0.01 uM using phosphatidylinositol as substrate incubated for 30 mins in presence of ATP by HTRF based assay relative to control
[33] = Toxicity in mouse at 100 mg/kg, po; assay type: organism-based; details: in vivo

T3 sequence (P42336 whole entry, canonical isoform): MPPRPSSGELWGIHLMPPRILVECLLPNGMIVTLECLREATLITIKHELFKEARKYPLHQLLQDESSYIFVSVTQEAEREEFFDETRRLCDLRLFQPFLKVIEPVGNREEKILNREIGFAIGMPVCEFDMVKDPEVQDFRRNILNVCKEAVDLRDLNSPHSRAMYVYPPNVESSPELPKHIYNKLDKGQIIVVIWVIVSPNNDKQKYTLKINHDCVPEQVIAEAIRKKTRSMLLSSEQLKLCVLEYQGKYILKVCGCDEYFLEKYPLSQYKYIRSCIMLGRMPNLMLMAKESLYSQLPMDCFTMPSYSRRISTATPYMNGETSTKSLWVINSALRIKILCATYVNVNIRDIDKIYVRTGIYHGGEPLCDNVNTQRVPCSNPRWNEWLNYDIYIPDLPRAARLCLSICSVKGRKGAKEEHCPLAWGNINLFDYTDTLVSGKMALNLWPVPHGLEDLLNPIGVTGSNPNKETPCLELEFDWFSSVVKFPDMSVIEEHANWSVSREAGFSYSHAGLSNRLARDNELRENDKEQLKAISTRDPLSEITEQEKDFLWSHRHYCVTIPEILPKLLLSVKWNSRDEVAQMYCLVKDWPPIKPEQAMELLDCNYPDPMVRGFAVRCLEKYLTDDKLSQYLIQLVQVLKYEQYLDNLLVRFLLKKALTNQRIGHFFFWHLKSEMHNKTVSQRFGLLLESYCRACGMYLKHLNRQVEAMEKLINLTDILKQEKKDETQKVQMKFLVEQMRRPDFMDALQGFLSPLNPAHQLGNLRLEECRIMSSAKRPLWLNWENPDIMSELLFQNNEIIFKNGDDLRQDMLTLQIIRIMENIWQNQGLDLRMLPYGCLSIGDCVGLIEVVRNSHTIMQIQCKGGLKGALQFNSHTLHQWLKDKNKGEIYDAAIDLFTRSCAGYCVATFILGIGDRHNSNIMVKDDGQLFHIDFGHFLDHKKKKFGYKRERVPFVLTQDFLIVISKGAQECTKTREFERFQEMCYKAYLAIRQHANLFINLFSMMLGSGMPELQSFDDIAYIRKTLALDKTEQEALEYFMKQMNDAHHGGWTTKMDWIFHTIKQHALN
Sequence of Phosphatidylinositol 4,5-bisphosphate 3-kinase catalytic subunit gamma isoform (Mus musculus, UniProt Q9JHG7) (Q9JHG7 whole entry, canonical isoform): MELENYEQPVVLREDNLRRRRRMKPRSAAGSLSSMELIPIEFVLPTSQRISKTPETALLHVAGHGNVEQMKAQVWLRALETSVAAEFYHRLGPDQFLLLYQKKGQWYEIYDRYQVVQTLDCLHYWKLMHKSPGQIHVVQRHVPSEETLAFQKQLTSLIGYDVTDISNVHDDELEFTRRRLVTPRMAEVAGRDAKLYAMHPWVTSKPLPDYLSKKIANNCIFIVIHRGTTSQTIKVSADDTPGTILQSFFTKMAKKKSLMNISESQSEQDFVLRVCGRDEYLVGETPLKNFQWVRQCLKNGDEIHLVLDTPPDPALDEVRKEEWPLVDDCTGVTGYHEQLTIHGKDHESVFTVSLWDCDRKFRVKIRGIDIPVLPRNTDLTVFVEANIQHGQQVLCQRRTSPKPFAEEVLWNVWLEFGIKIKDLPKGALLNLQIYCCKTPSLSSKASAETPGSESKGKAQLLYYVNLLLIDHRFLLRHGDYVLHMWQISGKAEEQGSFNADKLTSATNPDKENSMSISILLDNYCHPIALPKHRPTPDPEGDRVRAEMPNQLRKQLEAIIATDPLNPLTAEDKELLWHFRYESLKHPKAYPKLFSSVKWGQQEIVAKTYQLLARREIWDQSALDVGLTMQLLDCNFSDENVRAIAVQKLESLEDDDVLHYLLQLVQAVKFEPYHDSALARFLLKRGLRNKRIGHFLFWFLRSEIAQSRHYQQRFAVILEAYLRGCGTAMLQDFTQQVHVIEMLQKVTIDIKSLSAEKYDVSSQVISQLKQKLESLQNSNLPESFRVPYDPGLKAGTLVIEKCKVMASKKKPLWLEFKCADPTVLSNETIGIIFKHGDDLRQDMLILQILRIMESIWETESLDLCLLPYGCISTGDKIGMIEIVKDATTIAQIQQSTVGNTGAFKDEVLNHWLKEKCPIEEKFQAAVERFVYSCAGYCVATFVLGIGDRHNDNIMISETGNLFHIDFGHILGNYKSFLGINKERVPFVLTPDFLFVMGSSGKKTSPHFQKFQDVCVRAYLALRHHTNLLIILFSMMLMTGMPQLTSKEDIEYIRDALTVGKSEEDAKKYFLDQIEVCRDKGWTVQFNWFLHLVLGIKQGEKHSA

Structure (SMILES): N#Cc1c(N)ncnc1N1[C@H](c2nc3cccc(Cl)c3c(=O)n2-c2cccnc2)C[C@@H]2CCCC[C@@H]21
inhibition [1]: 3% | half-life at 60 h, 10 µM (in vitro): 4.28 h | inhibition [2]: 17% | inhibition [3]: 17% | IC50 [4]: 0.05 µM | CLH [5]: 5.4 mL/min/g

Structure (SMILES): C[C@H]1CC[C@@H](c2nc3cccc(Cl)c3c(=O)n2-c2cccc(F)c2)N1c1ncnc2[nH]cnc12
F [6]: 89.9% | Vdss [7]: 9.1 L/kg | half-life [8]: 2 h | half-life [9]: 2.06 h | MRT [10]: 5.96 h | Activity (Mus musculus [11]): Active | half-life at 60 h, 10 µM (in vitro): 4.44 h | Activity (H9c2): Non-Toxic | Activity (Mus musculus [12]): Active | IC50 [13]: 4.36 µM | Activity (Mus musculus [14]): Active | Activity (L02): Non-Toxic | Activity (HEK293): Non-Toxic | MRT [15]: 2.53 h | IC50 [16]: 0.0247 µM | IC50 [17]: 0.571 µM | Activity (L929): Non-Toxic | IC50 [18]: 0.1 µM | Activity (Mus musculus [19]): Dde | AUC [20]: 2110.52 ng·h/mL | Activity (Mus musculus [21]): Active | IC50 [22]: 0.267 µM | IC50 [23]: 4.43 µM | Tmax [24]: 4.67 h | IC50 [4]: 0.014 µM | CLH [5]: 5.2 mL/min/g | IC50 [25]: 0.375 µM | AUC [26]: 4897.74 ng·h/mL | Activity (Mus musculus [27]): Active | IC50 [28]: 0.943 µM | Vd [29]: 7.16 L/kg | Tmax [30]: 4.8 min

Structure (SMILES): N#Cc1c(N)ncnc1N1CC(F)(F)C[C@H]1c1nc2cccc(Cl)c2c(=O)n1-c1ccccc1
half-life at 60 h, 10 µM (in vitro): 2.82 h | inhibition [31]: 60% | IC50 [22]: > 1 µM | IC50 [23]: > 1 µM | IC50 [4]: 0.033 µM | CLH [5]: 8.2 mL/min/g | IC50 [25]: > 1 µM | inhibition [32]: 15% | Activity [33]: Toxic

Structure (SMILES): C[C@H]1CC[C@@H](c2nc3cccc(Cl)c3c(=O)n2-c2ccccc2)N1c1nc(N)nc2[nH]cnc12
half-life at 60 h, 10 µM (in vitro): 6.08 h | inhibition [2]: 69% | inhibition [3]: 22% | IC50 [22]: 0.038 µM | IC50 [4]: 0.025 µM | CLH [5]: 3.8 mL/min/g

More lines, now with the values ahead:

inhibition [1]: 5% | half-life at 60 h, 10 µM (in vitro): 2.1 h | inhibition [2]: 43% | inhibition [3]: 24% | IC50 [4]: 0.014 µM | CLH [5]: 11 mL/min/g
Structure (SMILES): N#Cc1c(N)ncnc1N1[C@H](c2nc3cccc(Cl)c3c(=O)n2N2CCOCC2)C[C@@H]2CCCC[C@@H]21

half-life at 60 h, 10 µM (in vitro): 1.83 h | inhibition [2]: 45% | inhibition [3]: 5% | IC50 [22]: 0.295 µM | IC50 [4]: 0.01 µM | CLH [5]: 12.6 mL/min/g
Structure (SMILES): C[C@H]1CC[C@@H](c2nc3cccc(Cl)c3c(=O)n2N2CCOCC2)N1c1ncnc(N)c1C#N
